From PubChem BioAssay AID328 (DTP/NCI, 2004) come the findings set out here.

Where “and” joins values, the source holds several entries; their conditions need not be identical. Identical values can stand only once. Toxic doses and inconclusive results are not listed.

The subject of the assay is BDF1 mice, P388 leukemia ip, median survival T/C. In words: NCI In Vivo Anticancer Drug Screen. Data for tumor model P388 Leukemia (intraperitoneal) in B6D2F1 (BDF1) mice. The conditions noted are these: endpoint: median survival time, higher = longer survival. The procedure, abridged:
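In tumour-bearing mice, survival after compound treatment is set against the vehicle group and given as a quotient.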

[1] abbreviates: dose: 100.0 mg/kg/injection, schedule: Q04DX003 (ip), vehicle: saline.
Where [2] appears, read: dose: 200.0 mg/kg/injection, schedule: Q04DX003 (ip), vehicle: saline.
Where [3] appears, read: dose: 400.0 mg/kg/injection, schedule: Q04DX003 (ip), vehicle: saline.
[4] abbreviates: dose: 50.0 mg/kg/injection, schedule: Q01DX009 (ip), vehicle: saline with Tween-80.
Where [5] appears, read: dose: 100.0 mg/kg/injection, schedule: Q01DX009 (ip), vehicle: saline with Tween-80.
Setting [6] is: dose: 15.0 mg/kg/injection, schedule: Q04DX003 (ip), vehicle: saline with Tween-80.
Setting [7] is: dose: 100.0 mg/kg/injection, schedule: Q01DX009 (ip), vehicle: Klucel (hydroxypropylcellulose) (HPC).
The mark [8] stands for this setting: dose: 200.0 mg/kg/injection, schedule: Q01DX009 (ip), vehicle: Klucel (hydroxypropylcellulose) (HPC).
The mark [9] stands for this setting: dose: 100.0 mg/kg/injection, schedule: Q04DX003 (ip), vehicle: Klucel (hydroxypropylcellulose) (HPC).
Setting [10] is: dose: 400.0 mg/kg/injection, schedule: Q04DX003 (ip), vehicle: Klucel (hydroxypropylcellulose) (HPC).

Consider `O=C(Cn1ccc(=O)[nH]c1=O)N1CCC2(CC1)SSC1(CCN(C(=O)Cn3ccc(=O)[nH]c3=O)CC1)S2`, for which the T/C was 100 % of control under setting [1], 109 % of control under setting [2] and 90 % of control under setting [3].
Consider `O=c1onc(-c2ccc(Cl)cc2)c2ccccc12`, for which the T/C runs as follows: (dose: 25.0 mg/kg/injection, schedule: Q01DX009 (ip), vehicle: saline with Tween-80) 105 % of control; under setting [4], 94 % of control; under setting [5], 102 % of control.
As for `N=c1c2c(C(N)=O)cn(C3OC(CO)C(O)C3O)c2ncn1O` (centres undefined), the T/C (dose: 0.75 mg/kg/injection, schedule: Q01DX009 (ip), vehicle: saline with Tween-80) was 122 % of control; the T/C (dose: 1.5 mg/kg/injection, schedule: Q01DX009 (ip), vehicle: saline with Tween-80) was 154 % of control; the T/C (dose: 2.0 mg/kg/injection, schedule: Q01DX009 (ip), vehicle: saline with Tween-80) was 180 % of control; the T/C (dose: 2.0 mg/kg/injection, schedule: Q04DX003 (ip), vehicle: saline with Tween-80) was 122 % of control; the T/C (dose: 2.9 mg/kg/injection, schedule: Q04DX003 (ip), vehicle: saline with Tween-80) is 160 % of control; the T/C (dose: 4.4 mg/kg/injection, schedule: Q04DX003 (ip), vehicle: saline with Tween-80) is 117 % of control. The T/C was 166 % of control (dose: 6.7 mg/kg/injection, schedule: Q04DX003 (ip), vehicle: saline with Tween-80); 190 % of control (dose: 10.0 mg/kg/injection, schedule: Q04DX003 (ip), vehicle: saline with Tween-80); 123 % of control under setting [6].
On to `COc1ccc2c(ccc[n+]2C)c1`, for which the T/C was 104 % of control (dose: 7.2 mg/kg/injection, schedule: Q01DX009 (ip), vehicle: saline); 91 % of control (dose: 9.37 mg/kg/injection, schedule: Q04DX003 (ip), vehicle: saline); 104 % of control (dose: 10.0 mg/kg/injection, schedule: Q01DX009 (ip), vehicle: saline); 91 % of control (dose: 18.75 mg/kg/injection, schedule: Q04DX003 (ip), vehicle: saline); 122 % of control (dose: 35.0 mg/kg/injection, schedule: Q04DX003 (ip), vehicle: saline); 110 % of control (dose: 36.7 mg/kg/injection, schedule: Q04DX003 (ip), vehicle: saline). The T/C by setting is: (dose: 37.5 mg/kg/injection, schedule: Q01DX009 (ip), vehicle: saline) 150 % of control and 155 % of control; (dose: 37.5 mg/kg/injection, schedule: Q04DX003 (ip), vehicle: saline) 104 % of control; (dose: 55.0 mg/kg/injection, schedule: Q04DX003 (ip), vehicle: saline) 154 % of control.
As to `CCOC(=O)C1CC=CCC1C(=O)OCC` (centres undefined), the T/C is 118 % of control under setting [1], 118 % of control under setting [2] and 109 % of control under setting [3].
Turning to `CN(C)CCNCc1c[nH]c(=O)[nH]c1=O`, the T/C runs as follows: under setting [4], 97 % of control; under setting [5], 94 % of control; (dose: 200.0 mg/kg/injection, schedule: Q01DX009 (ip), vehicle: saline with Tween-80) 93 % of control.
Consider `CC[C@@]1(O)C[C@H](OC2CC(N(C)C)C(OC3CC(O)C(OC4CCC(=O)C(C)O4)C(C)O3)C(C)O2)c2c(cc3c(c2O)C(=O)c2c(O)cccc2C3=O)[C@H]1C(=O)OC` (some centres undefined), for which the T/C is, setting by setting: (dose: 0.25 mg/kg/injection, schedule: Q01DX009 (ip), vehicle: water) 100 % of control; (dose: 0.5 mg/kg/injection, schedule: Q01DX009 (ip), vehicle: saline) 116 % of control; (dose: 2.0 mg/kg/injection, schedule: Q01DX009 (ip), vehicle: water) 154 % of control; (dose: 3.24 mg/kg/injection, schedule: Q04DX003 (ip), vehicle: water) 169 % of control; (dose: 4.0 mg/kg/injection, schedule: Q01DX009 (ip), vehicle: saline) 166 % of control; (dose: 4.0 mg/kg/injection, schedule: Q01DX009 (ip), vehicle: water) 194 % of control. The T/C is, setting by setting: (dose: 4.7 mg/kg/injection, schedule: Q04DX003 (ip), vehicle: water) 116 % of control; (dose: 5.4 mg/kg/injection, schedule: Q04DX003 (ip), vehicle: water) 197 % of control; (dose: 8.0 mg/kg/injection, schedule: Q01DX009 (ip), vehicle: saline) 236 % of control; (dose: 9.0 mg/kg/injection, schedule: Q04DX003 (ip), vehicle: water) 203 % of control; (dose: 9.4 mg/kg/injection, schedule: Q04DX003 (ip), vehicle: water) 184 % of control.
As for `CCOC(=O)Nc1cc(NC(c2ccccc2)c2ccccc2)c2[nH]cnc2n1`, the T/C by setting is: under setting [6], 87 % of control; (dose: 60.0 mg/kg/injection, schedule: Q04DX003 (ip), vehicle: saline with Tween-80) 108 % of control.
Turning to `CC(C)NC1(C(N)=O)CCN(Cc2ccccc2)CC1`, the T/C was 95 % of control (dose: 50.0 mg/kg/injection, schedule: Q01DX009 (ip), vehicle: Klucel (hydroxypropylcellulose) (HPC)); 91 % of control under setting [7]; 95 % of control under setting [8].
On to `COC(=O)c1cc(=O)n(-c2ccccc2C(F)(F)F)c(SC)n1`, for which the T/C reads like this: under setting [9], 116 % of control; under setting [10], 123 % of control.
As to `CC(O)C(O)C(O)C(/C=N\NC(N)=S)=N/NC(N)=S` (centres undefined), the T/C (dose: 100.0 mg/kg/injection, schedule: Q01DX009 (ip), vehicle: saline) was 92 % of control; the T/C (dose: 200.0 mg/kg/injection, schedule: Q01DX009 (ip), vehicle: saline) is 100 % of control; the T/C (dose: 400.0 mg/kg/injection, schedule: Q01DX009 (ip), vehicle: saline) was 88 % of control.
For the molecule `CC(C)(C)COC(=O)CCN1CC1`, the T/C is, setting by setting: (dose: 2.5 mg/kg/injection, schedule: Q01DX009 (ip), vehicle: Klucel (hydroxypropylcellulose) (HPC)) 116 % of control; (dose: 5.0 mg/kg/injection, schedule: Q01DX009 (ip), vehicle: Klucel (hydroxypropylcellulose) (HPC)) 111 % of control; (dose: 10.0 mg/kg/injection, schedule: Q01DX009 (ip), vehicle: Klucel (hydroxypropylcellulose) (HPC)) 122 % of control; (dose: 20.0 mg/kg/injection, schedule: Q01DX009 (ip), vehicle: Klucel (hydroxypropylcellulose) (HPC)) 100 % of control; (dose: 20.0 mg/kg/injection, schedule: Q04DX003 (ip), vehicle: Klucel (hydroxypropylcellulose) (HPC)) 95 % of control; (dose: 40.0 mg/kg/injection, schedule: Q04DX003 (ip), vehicle: Klucel (hydroxypropylcellulose) (HPC)) 100 % of control. In addition, the T/C (dose: 80.0 mg/kg/injection, schedule: Q04DX003 (ip), vehicle: Klucel (hydroxypropylcellulose) (HPC)) was 109 % of control.
For the molecule `Cc1ncc(/C=C/C(=O)O)c(C=O)c1O`, the T/C by setting is: (dose: 6.25 mg/kg/injection, schedule: Q04DX003 (ip), vehicle: saline) 103 % of control; (dose: 12.5 mg/kg/injection, schedule: Q04DX003 (ip), vehicle: saline) 101 % of control; (dose: 25.0 mg/kg/injection, schedule: Q04DX003 (ip), vehicle: saline) 100 % of control.
With `O=C(c1ccccc1)c1c2ccccc2c(C(=O)c2ccccc2)c2ccccc12`, the T/C under setting [7] is 105 % of control; the T/C under setting [9] was 91 % of control; the T/C under setting [8] is 100 % of control; the T/C (dose: 200.0 mg/kg/injection, schedule: Q04DX003 (ip), vehicle: Klucel (hydroxypropylcellulose) (HPC)) is 100 % of control; the T/C under setting [10] is 95 % of control.
Consider `O=C(O)/C=C/c1ccccc1C(=O)O`, for which the T/C is, setting by setting: (dose: 100.0 mg/kg/injection, schedule: Q01DX001 (ip), vehicle: saline) 100 % of control; (dose: 200.0 mg/kg/injection, schedule: Q01DX001 (ip), vehicle: saline) 100 % of control; (dose: 400.0 mg/kg/injection, schedule: Q01DX001 (ip), vehicle: saline) 109 % of control.
In the case of `CC1(C)N=C(N)N=C(N)N1c1cccc(C#N)c1`, the T/C is 111 % of control and 118 % of control (dose: 22.0 mg/kg/injection, schedule: Q04DX003 (ip), vehicle: saline); 122 % of control and 123 % of control (dose: 33.0 mg/kg/injection, schedule: Q04DX003 (ip), vehicle: saline); 118 % of control and 123 % of control (dose: 50.0 mg/kg/injection, schedule: Q04DX003 (ip), vehicle: saline); 95 % of control (dose: 75.0 mg/kg/injection, schedule: Q04DX003 (ip), vehicle: saline); 116 % of control under setting [1].
